# Reference: patent US8394824B2 (priority 2004, dated 2013)
# What was measured:
# [1] = tested on: specific allergic asthma of guinea pigs; conditions: guinea pig, in vivo
compound,measurement,setting,value
"C[N+]12CCC(CC1)C(OCC(O)(c1ccccc1)C1CCCC1)C2.[Br-] (single isomer, unassigned) [Example 4, II-type diastereoisomer of 3-(N-methyl-quinuclidinyl)-(2′-phenyl-2′-cyclopentyl-1-2′-hydroxyl)ethyl ether bromide]",ileum contraction response resulted from electric irritation,ex vivo ileum specimen,completely blocked
same,latent period,[1],231.60 ± 37.30 s
"C[N+]12CCC(CC1)C(OCC(O)(c1ccccc1)C1CCCC1)C2.[Br-] (single isomer, unassigned) [Example 3, 1-type diastereoisomer of 3-(N-methyl-quinuclidinyl)-(2′-phenyl-2′-cyclopentyl-2′-hydroxyl)ethyl ether bromide]",ileum contraction response resulted from electric irritation,ex vivo ileum specimen,completely blocked
same,latent period,[1],243.50 ± 42.13 s
"C[N+]12CCC(CC1)C(OCC(O)(c1ccccc1)C1CCCC1)C2.[Br-] (stereo not drawn) [Example 2, 3-(N-methyl-quinuclidinyl)-(2′-phenyl-2′-cyclopentyl-2′-hydroxyl)ethyl ether bromide]",ileum contraction response resulted from electric irritation,ex vivo ileum specimen,completely blocked
same,latent period,[1],248.90 ± 38.24 s
